Patent US20230123334A1, “AMINO LIPID COMPOUND, PREPARATION METHOD THEREFOR, AND APPLICATION THEREOF” (SHENZHEN SHENXIN BIOTECHNOLOGY CO., LTD., priority 2020, published 2023)

Assays:
Format in all cases: cell-based
[1] = system: embryonic stem cells (hESC2); assay: Screening as DNA vectors in embryonic stem cells, flow cytometry; settings: 75 ng plasmid DNA, 48 hours after transfection, flow cytometer
Outline: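 hESC2 cells in mTeSR1 on matrigel transfected with 75 ng pSin-EGFP-IRES-Puro complexed with amino lipid/DOPE liposomes formed in sodium acetate pH 5.6; 37 °C, 5% CO2. After 48 h, GFP-positive cells counted by flow cytometry (≥2000 cells), efficiency also expressed relative to Lipofectamine Stem.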

[2] = system: cardiomyocytes; assay: Screening as mRNA vectors in cardiomyocytes; settings: 50 ng EGFP mRNA per well
Outline: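 Cardiomyocytes differentiated from hESC, in DMEM with 10% FBS, were transfected with 50 ng EGFP mRNA per well. The read-out was GFP-positive cells as a percentage of Hoechst-stained nuclei, with Lipofectamine Stem as positive control.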

[3] = system: HEK293 cells; assay: Preliminary screening as DNA vectors, GFP transfection of HEK293 cells; settings: HEK293 cells; lipid/DOPE liposome with 75 ng plasmid DNA (psin-EGFP-IRES-Puro); number of cells expressing GFP divided by total number of nuclei (Hoechst)
Outline: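 First, amino lipid and DOPE were vortexed in sodium acetate buffer (pH 5.6) to form liposomes. Next, these were held with 75 ng EGFP plasmid at room temperature for 30 min. Finally, HEK293 cells were added, cultured at 37° C., Hoechst-stained, and GFP+/total nuclei scored by imaging.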

[4] = system: MCF7 cells; assay: Transfection of MCF7 cell line, mRNA vectors; settings: 50 ng EGFP mRNA per well
Outline: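 MCF7 cells in DMEM with fetal bovine serum were transfected with 50 ng EGFP mRNA per well. Read-out was the percentage of GFP-positive cells among total Hoechst-stained nuclei, with Lipofectamine2000 as positive control.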

[5] = system: MCF7 cells; assay: Transfection of MCF7 cell line, DNA vectors; parameters: concentration or dose not given beside the values; settings: plasmid DNA, GFP cells / total cells
Outline: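 MCF7 cells in DMEM with fetal bovine serum were transfected in 96-well format. Read-out was the percentage of GFP-fluorescent cells among total cells counted by Hoechst nuclear stain. Lipofectamine2000 served as positive control.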

[6] = system: Hela cells; assay: Transfection of Hela cell line, mRNA vectors; settings: 50 ng EGFP mRNA per well
Outline: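 HeLa cells in DMEM with 10% FBS transfected with 50 ng EGFP mRNA per well. Readout is percentage of GFP-positive cells among total cells counted by Hoechst nuclear stain; Lipofectamine2000 served as positive control.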

[7] = system: embryonic stem cells (hESC2); assay: Screening as mRNA vectors in embryonic stem cells; settings: 50 ng EGFP mRNA per well
Outline: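 EGFP mRNA (50 ng per well) transfected into hESC2 cells grown in mTeSR1; Lipofectamine Stem served as positive control. Read-out: GFP-fluorescent cells as percentage of total cells.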

[8] = system: HEK293 cells; assay: Preliminary screening as mRNA vectors, EGFP mRNA transfection of HEK293 cells; settings: HEK293 cells, 96-well plates, EGFP mRNA 50 ng per well; percentage of GFP fluorescent cells relative to total number of cells (Hoechst)
Outline: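 Screening format: EGFP mRNA transfection (50 ng/well) into HEK293 in 10% FBS-supplemented DMEM. Percent green fluorescent cells, normalised to Hoechst nuclear count, gave the value; Lipofectamine2000 was the reference transfectant.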

[9] = system: Hela cells; assay: Transfection of Hela cell line, DNA vectors; settings: 75 ng plasmid DNA, GFP cells / total cells
Outline: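 Amino lipid/DOPE liposomes in sodium acetate pH 5.6 were complexed with 75 ng psin-EGFP-IRES-Puro plasmid for 30 min at room temperature, then mixed with 3-5×10^4 Hela cells in DMEM/10% FBS at 37° C. Hoechst stain after 20-24 h, imaging after a further 20-24 h. Efficiency = GFP-positive cells / total nuclei.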

[10] = system: cardiomyocytes; assay: Screening as DNA vectors in cardiomyocytes; parameters: concentration or dose not given beside the values; settings: method as Example 4
Outline: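 hESC-derived cardiomyocytes in DMEM with 10% FBS were transfected with a GFP DNA vector; Lipofectamine Stem served as positive control. Read-out: percentage of GFP-positive cells relative to total cells counted by Hoechst nuclear stain.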

Row | Compound | Absolute DNA transfection efficiency in embryonic stem cells [1] [%] | Absolute mRNA transfection efficiency in cardiomyocytes [2] [%] | Absolute DNA transfection efficiency in HEK293 cells [3] [%] | Absolute mRNA transfection efficiency in MCF7 cells [4] [%] | Absolute DNA transfection efficiency in MCF7 cells [5] [%] | Absolute mRNA transfection efficiency in Hela cells [6] [%] | Absolute mRNA transfection efficiency in embryonic stem cells [7] [%] | Absolute mRNA transfection efficiency in HEK293 cells [8] [%] | Absolute DNA transfection efficiency in Hela cells [9] [%] | Absolute DNA transfection efficiency in cardiomyocytes [10] [%]
1 | CCCCCCCCCCCCSc1nc(NCCCN2CCN(C)CC2)nc(SCCCCCCCCC)n1 [Compound S9S12D9] | 7.6 | 69.3 | 39.3 | 5.1 | 33.8 | 19.6 | 20.6 | 60.9 | 19.6 | 5.9
2 | CCCCCCCCCCCCSc1nc(NCC2CCN(C)CC2)nc(SCCCCCCCCC)n1 [Compound S9S12D10] | 14.0 | 3.8 | 17.9 | 40.9 | 46.0 | 8.9 | 25.4 | 82.9 | 8.9 | 2.9
3 | CCCCCCCCCCCCCCSc1nc(NCCN2CCCC2)nc(SCCCCCCCCC)n1 [Compound S9S14D3] | 1.6 | 72.4 | 5.1 | 4.4 | 1.3 | 2.5 | 19.7 | 2.3 | 2.4 | 0.5
4 | CCCCCCCCCCCCCCSc1nc(NCCN2CCN(C)CC2)nc(SCCCCCCCCC)n1 [Compound S9S14D5] | 0.7 | 0.6 | 14.6 | 2.1 | 17.9 | 7.32 | 22.5 | 32.3 | 7.3 | 4.6
5 | CCCCCCCCCCCCCCSc1nc(NCCCN(C)C)nc(SCCCCCCCCC)n1 [Compound S9S14D6] | 2.0 | 8.5 | 19.2 | 12.2 | 44.4 | 9.6 | 1.7 | 80.0 | 9.6 | 10.5
6 | CCCCCCCCCCCCCCSc1nc(NCCCN2CCOCC2)nc(SCCCCCCCCC)n1 [Compound S9S14D8] | 0.7 | 1.0 | 21.0 | 14.8 | 6.4 | 10.8 | 0.3 | 11.6 | 10.8 | 6.1
7 | CCCCCCCCCCCCCCSc1nc(NCCCN2CCN(C)CC2)nc(SCCCCCCCCC)n1 [Compound S9S14D9] | 2.5 | 12.4 | 28.4 | 19.1 | 38.2 | 14.8 | 16.4 | 68.8 | 14.8 | 11.1
8 | CCCCCCCCCCCCCCSc1nc(NCC2CCN(C)CC2)nc(SCCCCCCCCC)n1 [Compound S9S14D10] | 0.7 | 34.4 | 14.5 | 50.3 | 50.5 | 7.5 | 23.1 | 91.0 | 7.2 | 7.6
9 | CCCCCCCCCCCCCCCSc1nc(NCCN2CCCC2)nc(SCCCCCCCCC)n1 [Compound S9S15D3] | 1.8 | 6.6 | 2.5 | 1.1 | 1.4 | 1.4 | 9.2 | 2.5 | 1.4 | 0.3
10 | CCCCCCCCCCCCCCCSc1nc(NCCN2CCN(C)CC2)nc(SCCCCCCCCC)n1 [Compound S9S15D5] | 6.2 | 1.9 | 8.9 | 27.0 | 23.0 | 4.4 | 33.4 | 41.3 | 4.4 | 12.8
11 | CCCCCCCCCCCCCCCSc1nc(NCCCN(C)C)nc(SCCCCCCCCC)n1 [Compound S9S15D6] | 3.7 | 12.9 | 47.4 | 47.3 | 48.4 | 23.7 | 2.5 | 87.2 | 23.7 | 6.9
12 | CCCCCCCCCCCCCCCSc1nc(NCCCN2CCOCC2)nc(SCCCCCCCCC)n1 [Compound S9S15D8] | 1.9 | 0.6 | 22.2 | 13.5 | 3.0 | 11.1 | 0.4 | 5.4 | 11.1 | 2.0
